Experimental data as given in patent publication US20110263647A1 (AMGEN INC., priority 2009, published 2011).
Structures can show the parent of a compound that is named as a salt.

Experiments:
PKBα = target: T1, PKBα (Homo sapiens, UniProt P31749); assay: PKB kinase assay (P33-labeled ATP, peptide substrate, filter plate); type: biochemical; settings: with respect to PKBα
T1 construct: fused on or other part: His6 tag is likely on the Upstate products
Text: The kinase assay for evaluating PKB activity comprises active PKB enzymes, a PKB specific substrate, and P^33-labeled ATP. Two form of PKBα enzymes were used, the full length PKBα and a kinase domain of PKBα with pleckstrin domain (amino acids 1-117) deleted. Both PKB enzymes were obtained from Upstate cell signaling solutions (Cat.# 14-276 and 14-341). The PKB substrate used is a synthetic peptide (ARKRERTYSFGHHA (SEQ ID NO: 1)) as described in Obata et al., J. Biol. Chem. 275 (46), 36108-36115 (2000). The phosphorylated substrate was captured by a phosphocellulose membrane filter plate (MILLIPORE) and measured by a Wallac Microbeta liquid scintillation counter (Perkin Elmer). Table 1 provides the IC50 values obtained for each of the examples with respect to PKBα.

CYP3A4 = target: T2, CYP3A4 (Homo sapiens, UniProt P08684); assay: CYP3A4 inhibition assay (midazolam, pooled human liver microsomes); type: in vitro ADME; settings: pH 7.4, probe midazolam (2.5 μM), test compound 3 μM, human liver microsomes 0.1 mg/mL
T2 construct: tissue XenoTech LLC Lot 0610351; host or cells: pooled human liver microsomes
Method: Midazolam was obtained from BD Gentest (Waltham, Mass.); 1′ hydroxy midazolam and 1-hydroxy bufuralol maleate were obtained from Ultrafine Chemicals (Manchester, UK); bufuralol HCl, ketoconazole, quinidine, potassium phosphate, and NADPH were obtained from Sigma (St. Louis, Mo.). Test compounds were prepared at 10 mM concentration in DMSO (Mallinckrodt Inc., St. Louis, Mo.). NADPH was prepared at 10 mM concentration in a pH 7.4 buffer (8.3 mg/mL 66.7 mM potassium phosphate). Midazolam was prepared at 1 mM concentration in deionized water (Amgen, Thousand Oaks, Calif.), and bufuralol was prepared at 2 mM concentration in deionized water. A stock solution of ketoconazole was prepared at 37 mM concentration in DMSO, and quinidine was prepared at 500 uM concentration in DMSO. Formic acid in acetonitrile (0.05%, ACN) was used as a quench solution (Sigma-Aldrich, St. Louis, Mo.). All solvents used for LC/MS were of chromatographic grade. Pooled human liver microsomes (Lot 0610351) were purchased from XenoTech LLC, (Lenexa, Kans.).
Pooled human liver microsomes (0.1 mg/mL) were incubated at 37° C. in a phosphate buffer (66.7 mM potassium phosphate at pH 7.4) with the selective CYP3A substrate midazolam at a concentration of 2.5 μM in the presence and absence of test compound (3 μM). The reaction was started with the addition of NADPH (1 mM final concentration). The reaction was stopped after 10 minutes by addition of formic acid in acetonitrile. 1′-Hydroxymidazolam metabolite formation was measured by an HPLC MS detection method (mobile phases were 0.1% AcOH in 5% MeOH, and 0.1% AcOH in 95% MeOH; the HPLC column was an Onyx Monolithic C18 CHO-7645 HPLC column obtained from Phenomenex; Shimadzu LC-10ADVP equipped Biomek FX Liquid handling system and CTC Analytics PAL well auto-sampler; Mass spectrometer: Applied Biosystems API 3000 using Analyst 1.4.1 software). Inhibition was determined by the ratio of the amount of 1′-hydroxy midazolam metabolite formed in the presence of test compound to the amount of metabolite found in the absence of test compound Inhibition was measured relative to the rate of formation of 1′-hydroxy midazolam incubated at 2.5 μM without test compound.

U87MG tumors = assay: U87MG xenograft tumor growth model; type: in vivo, Athymic nude mice; settings: oral 10, 30, 60 and 100 mg/kg/day; 13 days (Example 2), 10 days and 17 days (Example 18)
Method: The effect of PKB inhibition on tumor growth in vivo was assessed in an established U87MG xenograft model for Examples 2 and 18. Athymic nude mice bearing U87MG tumors (approximately 200 mm^3) in the right flank were treated with the compound orally at the dosage of 10, 30, 60, and 100 mg/kg/day (n=10) for 13 days (Example 2) and for 10 days and 17 days (Example 18). Tumor volume and body weight were measured twice per week. Data were expressed as means plus or minus standard errors and plotted as a function of time. Statistical significance of the effect was evaluated by Repeated Measures Analysis of Variance (RMANOVA) followed by Scheffe post hoc testing for multiple comparisons.

T2 sequence (P08684 whole entry): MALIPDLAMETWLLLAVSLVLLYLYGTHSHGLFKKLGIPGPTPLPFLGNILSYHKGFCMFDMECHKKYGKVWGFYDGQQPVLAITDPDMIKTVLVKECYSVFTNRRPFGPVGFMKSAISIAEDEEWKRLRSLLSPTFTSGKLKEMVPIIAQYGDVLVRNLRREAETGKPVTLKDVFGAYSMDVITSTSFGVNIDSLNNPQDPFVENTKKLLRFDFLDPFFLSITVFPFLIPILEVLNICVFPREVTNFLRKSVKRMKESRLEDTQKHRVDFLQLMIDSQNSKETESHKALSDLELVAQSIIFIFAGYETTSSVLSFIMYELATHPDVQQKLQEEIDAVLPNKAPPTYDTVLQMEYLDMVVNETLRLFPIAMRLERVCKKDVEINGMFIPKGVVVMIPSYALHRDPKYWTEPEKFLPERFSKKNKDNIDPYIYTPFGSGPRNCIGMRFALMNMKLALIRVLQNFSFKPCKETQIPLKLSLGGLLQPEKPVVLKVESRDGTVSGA
T1 sequence (P31749 118-472 limits assumed): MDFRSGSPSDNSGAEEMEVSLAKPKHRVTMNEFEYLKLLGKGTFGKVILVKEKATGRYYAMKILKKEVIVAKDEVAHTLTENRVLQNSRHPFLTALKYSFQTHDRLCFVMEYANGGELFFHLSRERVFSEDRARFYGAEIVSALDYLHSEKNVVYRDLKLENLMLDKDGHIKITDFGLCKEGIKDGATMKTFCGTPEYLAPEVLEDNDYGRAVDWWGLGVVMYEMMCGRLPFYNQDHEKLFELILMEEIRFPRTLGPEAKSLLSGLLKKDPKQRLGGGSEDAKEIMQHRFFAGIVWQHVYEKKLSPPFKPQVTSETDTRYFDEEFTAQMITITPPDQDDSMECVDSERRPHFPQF

IC50 (PKBα) [nM] | inhibition at 10 min, 3 μM (CYP3A4) [%] | SMILES | tumor growth inhibition (U87MG tumors)
< 50 | 48 | N[C@H](CNc1ncc(-c2ccc3cnc(F)cc3c2)s1)Cc1ccc(Cl)c(F)c1 [Example 44, (2S)-3-(4-Chloro-3-fluorophenyl)-N-1-(5-(3-fluoro-6-isoquinoliny)-1,3-thiazol-2-yl)-1-2-propanediamine] | 
< 50 | 48 | N[C@H](CNc1ncc(-c2ccc3cnc(F)cc3c2)s1)[C@@H](CO)c1ccc(C(F)(F)F)cc1 [Example 33, (2S,3S)-3-Amino-4-(5-(3-fluoroisoquinolin-6-yl)thiazol-2-ylamino)-2-(4-(trifluoromethyl)phenyl)butan-1-ol] | 
< 50 | 9 | CC(F)(F)c1ccc([C@H](O)[C@H](N)CNc2ncc(-c3ccc4cnc(F)cc4c3)s2)cc1 [Example 38, (1S,2R)-2-Amino-1-(4-(1,1-difluoroethyl)phenyl)-3-((5-(3-fluoro-6-isoquinolinyl)-1,3-thiazol-2-yl)amino)-1-propanol trifluoroacetate] | 
< 50 | 0 | C[C@@H](c1ccc(C(F)(F)F)cc1)[C@H](N)CNc1ncc(-c2ccc3cnc(F)cc3c2)s1 [Example 10, N-((2S,3S)-2-Amino-3-(4-(trifluoromethyl)phenyl)butyl)-5-(3-fluoroisoquinolin-6-yl)thiazol-2-amine] | 
50 to 1000 | 48 | N[C@H](CNc1ncc(-c2ccc3cnc(F)cc3c2)s1)CN1CCC(C(F)(F)F)CC1 [Example 25, N—((R)-2-Amino-3-(4-(trifluoromethyl)piperidin-1-yl)propyl)-5-(3-fluoroisoquinolin-6-yl)thiazol-2-amine] | 
< 50 | 13 | CC(F)(F)c1ccc(C[C@H](N)CNc2ncc(-c3ccc4cnc(F)cc4c3)s2)cn1 [Example 7, N—((S)-2-Amino-3-(6-(1,1-difluoroethyl)pyridin-3-yl)propyl)-5-(3-fluoroisoquinolin-6-yl)thiazol-2-amine] | 
< 50 | 21 | CC(F)(F)c1ccc(C[C@H](N)CCc2ncc(-c3ccc4cnc(F)cc4c3)s2)cn1 [Example 50] | 
< 50 | 75 | N[C@H](CNc1ncc(-c2ccc3cnc(F)cc3c2)s1)Cc1ccc(C(F)(F)F)nc1 [Example 2, (2S)—N-(5-(3-Fluoro-6-isoquinolinyl)-1,3-thiazol-2-yl)-3-(6-(trifluoromethyl)-3-pyridinyl)-1,2-propanediamine] | Dose dependent tumor growth inhibition
< 50 | 0 | N[C@H](CNc1ncc(-c2ccc3cnc(F)cc3c2)s1)Cc1ccc(C(F)(F)F)cc1 [Example 4, N—((S)-2-Amino-3-(4-(trifluoromethyl)phenyl)propyl)-5-(3-fluoroisoquinolin-6-yl)thiazol-2-amine trifluoroacetate] | 
< 50 | 0 | N[C@H](CCc1ncc(-c2ccc3cnc(F)cc3c2)s1)[C@@H](O)c1ccc(C(F)(F)F)cc1 [Example 36, (1S,2R)-2-Amino-4-(5-(3-fluoroisoquinolin-6-yl)thiazol-2-yl)-1-(4-(trifluoromethyl)phenyl)butan-1-ol trifluoroacetate] | 
< 50 | 0 | COCc1nc(NC[C@@H](N)Cc2ccc(C(F)(F)F)nc2)sc1-c1ccc2cnc(F)cc2c1 [Example 18, N—((S)-2-Amino-3-(6-(trifluoromethyl)pyridin-3-yl)propyl)-5-(3-fluoroisoquinolin-6-yl)-4-(methoxymethyl)thiazol-2-amine] | Dose dependent tumor growth inhibition
